Active and inactive are the calls of the source. No cut-off for these calls is given here.
Experiments:
MC3T3-E1 [1] = assay: Induction of osteogenesis in mouse MC3T3-E1 cells assessed as osteocalcin secretion at 25 uM after 3 weeks; assay type: functional, cell-based; details: MC3T3-E1, 504 h
[2] = Cytotoxicity against mouse MC3T3-E1 cells after 4 hrs by fluorescent Alamar blue assay; assay type: cell-based; details: mc3t3-e1, 4 h
MC3T3-E1 [3] = assay: Inhibition of staurosporine-induced apoptosis in mouse MC3T3-E1 cells by caspase 3 colorimetric assay; assay type: functional, cell-based
[4] = Antiproliferative activity against mouse MC3T3-E1 cells after 24 hrs by BrdU incorporation assay; assay type: cell-based; details: mc3t3-e1, 24 h
MC3T3-E1 [5] = assay: Induction of osteogenesis in mouse MC3T3-E1 cells assessed as calcium level at 25 uM after 3 weeks; assay type: functional, cell-based; details: MC3T3-E1, 504 h
MC3T3-E1 [6] = assay: Induction of osteogenesis in mouse MC3T3-E1 cells assessed as alkaline phosphatase secretion at 25 uM after 3 weeks by ELISA; assay type: functional, cell-based; details: MC3T3-E1, 504 h
[7] = Cytotoxicity against mouse MC3T3-E1 cells assessed as increase in apoptosis treated for 3 hrs measured after 22 hrs by caspase 3 colorimetric assay; assay type: cell-based

COc1cc2nccc(Oc3ccc4c(C(=O)Nc5ccc(C)cc5)cccc4c3)c2cc1OC
EC50 (MC3T3-E1 [1]): 0.03 µM
Activity [2]: Non-toxic
Activity (MC3T3-E1 [3]): inactive
Activity [4]: Dose-dependent effect
EC50 (MC3T3-E1 [5]): 0.05 µM
EC50 (MC3T3-E1 [6]): 0.09 µM

COc1cc2nccc(Oc3ccc4c(NC(=O)c5ccc(C)cc5)cccc4c3)c2cc1OC
EC50 (MC3T3-E1 [1]): 0.1 µM
EC50 (MC3T3-E1 [5]): 0.15 µM
EC50 (MC3T3-E1 [6]): 0.12 µM

CN[C@@H]1C[C@H]2O[C@@](C)([C@@H]1OC)n1c3ccccc3c3c4c(c5c6ccccc6n2c5c31)C(=O)NC4 [STAUROSPORINE]
Activity [7]: Non-toxic
